“And” between values parts separate entries of the source, which are not always exact repeats. Identical values can stand only once. Toxic doses and inconclusive results are not listed.
System: BDF1 mice, B16 melanoma ip, median survival T/C
Experiment: NCI In Vivo Anticancer Drug Screen. Data for tumor model B16 Melanoma (intraperitoneal) in B6D2F1 (BDF1) mice
Settings: endpoint: median survival time, higher = longer survival
How it was run: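 Antitumor activity is assessed in mice bearing a transplanted tumor, with survival or tumor size compared against vehicle-dosed controls and expressed as T/C.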

[1] = dose: 12.5 mg/kg/injection, schedule: Q01DX009 (ip), vehicle: saline with Tween-80
[2] = dose: 25.0 mg/kg/injection, schedule: Q01DX009 (ip), vehicle: saline with Tween-80
[3] = dose: 50.0 mg/kg/injection, schedule: Q01DX009 (ip), vehicle: saline with Tween-80
[4] = dose: 50.0 mg/kg/injection, schedule: Q01DX009 (ip), vehicle: saline
[5] = dose: 100.0 mg/kg/injection, schedule: Q01DX009 (ip), vehicle: saline with Tween-80
[6] = dose: 100.0 mg/kg/injection, schedule: Q01DX009 (ip), vehicle: saline
[7] = dose: 200.0 mg/kg/injection, schedule: Q01DX009 (ip), vehicle: saline with Tween-80
[8] = dose: 200.0 mg/kg/injection, schedule: Q01DX009 (ip), vehicle: saline
[9] = dose: 6.25 mg/kg/injection, schedule: Q01DX009 (ip), vehicle: saline
[10] = dose: 12.5 mg/kg/injection, schedule: Q01DX009 (ip), vehicle: saline
[11] = dose: 25.0 mg/kg/injection, schedule: Q01DX009 (ip), vehicle: saline
[12] = dose: 400.0 mg/kg/injection, schedule: Q01DX009 (ip), vehicle: saline with Tween-80
[13] = dose: 100.0 mg/kg/injection, schedule: Q01DX009 (ip), vehicle: Klucel (hydroxypropylcellulose) (HPC)
[14] = dose: 200.0 mg/kg/injection, schedule: Q01DX009 (ip), vehicle: Klucel (hydroxypropylcellulose) (HPC)
[15] = dose: 400.0 mg/kg/injection, schedule: Q01DX009 (ip), vehicle: Klucel (hydroxypropylcellulose) (HPC)
[16] = dose: 0.78 mg/kg/injection, schedule: Q01DX009 (ip), vehicle: saline
[17] = dose: 1.56 mg/kg/injection, schedule: Q01DX009 (ip), vehicle: saline
[18] = dose: 3.12 mg/kg/injection, schedule: Q01DX009 (ip), vehicle: saline
[19] = dose: 1.5 mg/kg/injection, schedule: Q01DX009 (ip), vehicle: saline with Tween-80

CC12CC3OC(=O)C1COC14OC5(C2C1=O)C(O)(CCC1C4CC(O)C2(O)CC=CC(=O)C12C)C(=O)OC35C (stereo not drawn)
T/C (dose: 3.0 mg/kg/injection, schedule: Q01DX009 (ip), vehicle: Klucel (hydroxypropylcellulose) (HPC)): 120 % of control | T/C (dose: 6.0 mg/kg/injection, schedule: Q01DX009 (ip), vehicle: Klucel (hydroxypropylcellulose) (HPC)): 98 % of control and 124 % of control | T/C (dose: 12.0 mg/kg/injection, schedule: Q01DX009 (ip), vehicle: Klucel (hydroxypropylcellulose) (HPC)): 110 % of control and 118 % of control | T/C (dose: 24.0 mg/kg/injection, schedule: Q01DX009 (ip), vehicle: Klucel (hydroxypropylcellulose) (HPC)): 113 % of control and 120 % of control | T/C (dose: 48.0 mg/kg/injection, schedule: Q01DX009 (ip), vehicle: Klucel (hydroxypropylcellulose) (HPC)): 120 % of control

O=c1cc[nH]c(=O)o1
T/C (dose: 6.25 mg/kg/injection, schedule: Q01DX009 (ip), vehicle: water): 104 % of control | T/C (dose: 12.5 mg/kg/injection, schedule: Q01DX009 (ip), vehicle: water): 111 % of control | T/C (dose: 25.0 mg/kg/injection, schedule: Q01DX009 (ip), vehicle: water): 108 % of control

O=C(CCCN1CCN(c2ccccn2)CC1)c1ccc(F)cc1
T/C (dose: 0.19 mg/kg/injection, schedule: Q01DX009 (ip), vehicle: Klucel (hydroxypropylcellulose) (HPC)): 93 % of control | T/C (dose: 0.39 mg/kg/injection, schedule: Q01DX009 (ip), vehicle: Klucel (hydroxypropylcellulose) (HPC)): 89 % of control | T/C (dose: 0.78 mg/kg/injection, schedule: Q01DX009 (ip), vehicle: Klucel (hydroxypropylcellulose) (HPC)): 110 % of control | T/C (dose: 1.56 mg/kg/injection, schedule: Q01DX009 (ip), vehicle: Klucel (hydroxypropylcellulose) (HPC)): 92 % of control | T/C (dose: 3.12 mg/kg/injection, schedule: Q01DX009 (ip), vehicle: Klucel (hydroxypropylcellulose) (HPC)): 88 % of control

C(COCCOCC1CO1)OCCOCC1CO1 (stereo not drawn)
T/C [1]: 101 % of control | T/C [2]: 105 % of control | T/C [3]: 103 % of control | T/C [4]: 107 % of control | T/C [5]: 109 % of control | T/C [6]: 108 % of control and 110 % of control | T/C [7]: 99 % of control | T/C [8]: 86 % of control

OCC(O)COCC#Cc1ccccc1 (stereo not drawn)
T/C [9]: 118 % of control | T/C [10]: 114 % of control | T/C [11]: 110 % of control | T/C (dose: 50.0 mg/kg/injection, schedule: Q01DX009 (ip), vehicle: Klucel (hydroxypropylcellulose) (HPC)): 87 % of control | T/C [4]: 101 % of control

Nc1cccc2c1nc(NCCO)c1ccccc12
T/C [3]: 94 % of control | T/C [5]: 102 % of control | T/C [7]: 94 % of control | T/C [12]: 102 % of control

CC1CC(NC(=O)/C=C/C(=O)O)CC(C)(C)C1 (stereo not drawn)
T/C [13]: 93 % of control | T/C [14]: 95 % of control | T/C [15]: 93 % of control

CC1CN1P1(N2CC2C)=NP(N2CC2C)(N2CC2C)=NP(N2CC2C)(N2CC2C)=N1 (stereo not drawn)
T/C [16]: 111 % of control | T/C (dose: 1.0 mg/kg/injection, schedule: Q01DX009 (ip), vehicle: saline): 89 % of control and 99 % of control | T/C (dose: 1.0 mg/kg/injection, schedule: Q02DX009 (ip), vehicle: saline): 91 % of control and 100 % of control | T/C [17]: 104 % of control | T/C (dose: 2.0 mg/kg/injection, schedule: Q01DX009 (ip), vehicle: saline): 96 % of control and 103 % of control | T/C (dose: 2.0 mg/kg/injection, schedule: Q02DX009 (ip), vehicle: saline): 100 % of control and 105 % of control and 107 % of control | T/C [18]: 105 % of control | T/C (dose: 4.0 mg/kg/injection, schedule: Q01DX009 (ip), vehicle: saline): 110 % of control and 116 % of control | T/C (dose: 4.0 mg/kg/injection, schedule: Q02DX009 (ip), vehicle: saline): 99 % of control and 103 % of control and 110 % of control | T/C [9]: 97 % of control and 117 % of control | T/C (dose: 8.0 mg/kg/injection, schedule: Q01DX009 (ip), vehicle: saline): 107 % of control | T/C (dose: 8.0 mg/kg/injection, schedule: Q02DX009 (ip), vehicle: saline): 108 % of control and 109 % of control and 112 % of control | T/C [10]: 116 % of control | T/C (dose: 16.0 mg/kg/injection, schedule: Q01DX009 (ip), vehicle: saline): 117 % of control | T/C (dose: 16.0 mg/kg/injection, schedule: Q02DX009 (ip), vehicle: saline): 101 % of control and 112 % of control and 116 % of control | T/C [11]: 114 % of control and 118 % of control | T/C (dose: 32.0 mg/kg/injection, schedule: Q01DX009 (ip), vehicle: saline): 110 % of control | T/C (dose: 32.0 mg/kg/injection, schedule: Q02DX009 (ip), vehicle: saline): 109 % of control | T/C (dose: 64.0 mg/kg/injection, schedule: Q01DX009 (ip), vehicle: saline): 105 % of control | T/C (dose: 64.0 mg/kg/injection, schedule: Q02DX009 (ip), vehicle: saline): 115 % of control

O=C(Cc1ccccc1)NC/C=N/O
T/C [3]: 107 % of control | T/C [5]: 102 % of control | T/C [7]: 93 % of control | T/C [12]: 100 % of control

CCN(CC)C(=O)c1cccnc1
T/C [10]: 109 % of control | T/C [11]: 123 % of control | T/C [4]: 107 % of control | T/C [6]: 103 % of control | T/C [8]: 102 % of control

Cc1ccc(C)n1-c1ccccc1C(=O)O
T/C [13]: 106 % of control | T/C [14]: 96 % of control | T/C [15]: 90 % of control

CCOc1ccccc1NC(=O)Nc1cccc2ccccc12
T/C [13]: 103 % of control | T/C [14]: 100 % of control | T/C [15]: 103 % of control

CC1=CCC(C(C)(C)c2ccc(O)cc2)CC1 (stereo not drawn)
T/C (dose: 6.25 mg/kg/injection, schedule: Q01DX009 (ip), vehicle: saline with Tween-80): 96 % of control | T/C [1]: 105 % of control | T/C [2]: 102 % of control and 106 % of control

O=C1C(=O)c2ccccc2-c2ccccc21.O=C1C(=O)c2ccccc2-c2ccccc21.[Hg]
T/C [19]: 94 % of control and 99 % of control | T/C (dose: 3.0 mg/kg/injection, schedule: Q01DX009 (ip), vehicle: saline with Tween-80): 88 % of control and 90 % of control

CC(=O)[O][Hg][c]1cc(-c2ccc(N=Nc3c(S(=O)(=O)O)cc4cccc(N)c4c3O)cc2)ccc1N=Nc1c(S(=O)(=O)O)cc2cccc(N)c2c1O
T/C (dose: 0.75 mg/kg/injection, schedule: Q01DX009 (ip), vehicle: saline with Tween-80): 95 % of control | T/C [19]: 90 % of control | T/C (dose: 1.5 mg/kg/injection, schedule: Q04DX003 (ip), vehicle: saline with Tween-80): 102 % of control | T/C (dose: 3.0 mg/kg/injection, schedule: Q04DX003 (ip), vehicle: saline with Tween-80): 86 % of control

CN1CCN(CCC=C2c3ccccc3Sc3ccc(S(=O)(=O)N(C)C)cc32)CC1
T/C [16]: 102 % of control | T/C [17]: 100 % of control | T/C [18]: 86 % of control | T/C [10]: 89 % of control

CCN1C(=O)CN(CCN2CC(=O)N(c3ccccc3)C2=S)C1=S
T/C (dose: 18.75 mg/kg/injection, schedule: Q01DX009 (ip), vehicle: saline with Tween-80): 112 % of control | T/C (dose: 37.5 mg/kg/injection, schedule: Q01DX009 (ip), vehicle: saline with Tween-80): 120 % of control

Cc1cccc2c(Nc3ccc(NS(C)(=O)=O)cc3)c3ccc([N+](=O)[O-])cc3nc12
T/C (dose: 8.0 mg/kg/injection, schedule: Q01DX009 (ip), vehicle: saline with Tween-80): 155 % of control | T/C (dose: 12.0 mg/kg/injection, schedule: Q01DX009 (ip), vehicle: saline with Tween-80): 194 % of control

Cn1c(C[N+](C)(C)C)cc2ccccc21
T/C [2]: 97 % of control | T/C [3]: 94 % of control | T/C [5]: 86 % of control

Source: PubChem BioAssay AID192 (DTP/NCI, 2004)
